Measured values published in ChEMBL document CHEMBL4229333, “Effects of rigidity on the selectivity of protein kinase inhibitors” (Eur J Med Chem, 2018).
≈ marks a conversion by molar mass, not a printed value.

What was measured:
[1] = biological target: Tyrosine-protein kinase ZAP-70 (Homo sapiens) (UniProt P43403); assay: Inhibition of ZAP70 (unknown origin) at 1 uM by mobility shift microfluidics platform based assay relative to control
[2] = biological target: Mitogen-activated protein kinase 3 (Homo sapiens) (UniProt P27361); assay: Inhibition of MAPK3 (unknown origin) at 1 uM by mobility shift microfluidics platform based assay relative to control
[3] = biological target: Dual specificity tyrosine-phosphorylation-regulated kinase 1B (Homo sapiens) (UniProt Q9Y463); assay: Inhibition of DYRK1B (unknown origin) at 1 uM by mobility shift microfluidics platform based assay relative to control
[4] = Solubility of compound at 37 degC incubated for 24 hrs by HPLC method; type: physicochemical
[5] = biological target: Serine/threonine-protein kinase PLK1 (Homo sapiens) (UniProt P53350); assay: Inhibition of PLK1 (unknown origin) at 1 uM by mobility shift microfluidics platform based assay relative to control
[6] = biological target: Mitogen-activated protein kinase kinase kinase kinase 4 (Homo sapiens) (UniProt O95819); assay: Inhibition of MAP4K4 (unknown origin) at 1 uM by mobility shift microfluidics platform based assay relative to control
[7] = biological target: Protein kinase C eta type (Homo sapiens) (UniProt P24723); assay: Inhibition of PKC-eta (unknown origin) at 1 uM by mobility shift microfluidics platform based assay relative to control
[8] = biological target: Mast/stem cell growth factor receptor Kit (Homo sapiens) (UniProt P10721); assay: Inhibition of KIT (unknown origin) at 1 uM by mobility shift microfluidics platform based assay relative to control
[9] = biological target: ALK tyrosine kinase receptor (Homo sapiens) (UniProt Q9UM73); assay: Inhibition of ALK (unknown origin) at 1 uM by mobility shift microfluidics platform based assay relative to control
[10] = biological target: Serine/threonine-protein kinase 26 (Homo sapiens) (UniProt Q9P289); assay: Inhibition of MST4 (unknown origin) at 1 uM by mobility shift microfluidics platform based assay relative to control
[11] = biological target: Casein kinase I isoform epsilon (Homo sapiens) (UniProt P49674); assay: Inhibition of CK1-epsilon (unknown origin) at 1 uM by mobility shift microfluidics platform based assay relative to control
[12] = biological target: cGMP-dependent protein kinase 1 (Homo sapiens) (UniProt Q13976); assay: Inhibition of PRKG1 (unknown origin) at 1 uM by mobility shift microfluidics platform based assay relative to control
[13] = biological target: Ribosomal protein S6 kinase alpha-6 (Homo sapiens) (UniProt Q9UK32); assay: Inhibition of RSK4 (unknown origin) at 1 uM by mobility shift microfluidics platform based assay relative to control
[14] = biological target: Mitogen-activated protein kinase 12 (Homo sapiens) (UniProt P53778); assay: Inhibition of P38-gamma (unknown origin) at 1 uM by mobility shift microfluidics platform based assay relative to control
[15] = biological target: Serine/threonine-protein kinase MRCK beta (Homo sapiens) (UniProt Q9Y5S2); assay: Inhibition of MRCK-beta (unknown origin) at 1 uM by mobility shift microfluidics platform based assay relative to control
[16] = biological target: Ephrin type-B receptor 1 (Homo sapiens) (UniProt P54762); assay: Inhibition of EPH-B1 (unknown origin) at 1 uM by mobility shift microfluidics platform based assay relative to control
[17] = biological target: Tyrosine-protein kinase JAK3 (Homo sapiens) (UniProt P52333); assay: Inhibition of JAK3 (unknown origin) at 1 uM by mobility shift microfluidics platform based assay relative to control
[18] = biological target: Casein kinase I isoform alpha (Homo sapiens) (UniProt P48729); assay: Inhibition of CK1-alpha1 (unknown origin) at 1 uM by mobility shift microfluidics platform based assay relative to control
[19] = biological target: Ephrin type-A receptor 2 (Homo sapiens) (UniProt P29317); assay: Inhibition of EPH-A2 (unknown origin) at 1 uM by mobility shift microfluidics platform based assay relative to control
[20] = biological target: MAP kinase-activated protein kinase 3 (Homo sapiens) (UniProt Q16644); assay: Inhibition of MAPKAPK3 (unknown origin) at 1 uM by mobility shift microfluidics platform based assay relative to control
[21] = biological target: Calcium/calmodulin-dependent protein kinase type II subunit delta (Homo sapiens) (UniProt Q13557); assay: Inhibition of CAMK2D (unknown origin) at 1 uM by mobility shift microfluidics platform based assay relative to control
[22] = biological target: Cytoplasmic tyrosine-protein kinase BMX (Homo sapiens) (UniProt P51813); assay: Inhibition of BMX (unknown origin) at 1 uM by mobility shift microfluidics platform based assay relative to control
[23] = biological target: Tyrosine-protein kinase ITK/TSK (Homo sapiens) (UniProt Q08881); assay: Inhibition of ITK (unknown origin) at 1 uM by mobility shift microfluidics platform based assay relative to control
[24] = biological target: Serine/threonine-protein kinase 38-like (Homo sapiens) (UniProt Q9Y2H1); assay: Inhibition of NDR2 (unknown origin) at 1 uM by mobility shift microfluidics platform based assay relative to control
[25] = biological target: Serine/threonine-protein kinase 16 (Homo sapiens) (UniProt O75716); assay: Inhibition of STK16 (unknown origin) at 1 uM by mobility shift microfluidics platform based assay relative to control
[26] = biological target: Homeodomain-interacting protein kinase 2 (Homo sapiens) (UniProt Q9H2X6); assay: Inhibition of HIPK2 (unknown origin) at 1 uM by mobility shift microfluidics platform based assay relative to control
[27] = biological target: Protein kinase C iota type (Homo sapiens) (UniProt P41743); assay: Inhibition of PKC-iota (unknown origin) at 1 uM by mobility shift microfluidics platform based assay relative to control
[28] = biological target: Epidermal growth factor receptor (Homo sapiens) (UniProt P00533); assay: Inhibition of EGFR (unknown origin) at 1 uM by mobility shift microfluidics platform based assay relative to control
[29] = biological target: Calcium/calmodulin-dependent protein kinase type 1D (Homo sapiens) (UniProt Q8IU85); assay: Inhibition of CAMK1D (unknown origin) at 1 uM by mobility shift microfluidics platform based assay relative to control
[30] = biological target: BDNF/NT-3 growth factors receptor (Homo sapiens) (UniProt Q16620); assay: Inhibition of TRKB (unknown origin) at 1 uM by mobility shift microfluidics platform based assay relative to control
[31] = biological target: Dual specificity protein kinase CLK3 (Homo sapiens) (UniProt P49761); assay: Inhibition of CLK3 (unknown origin) at 1 uM by mobility shift microfluidics platform based assay relative to control
[32] = biological target: Calcium/calmodulin-dependent protein kinase type 1 (Homo sapiens) (UniProt Q14012); assay: Inhibition of CAMK1A (unknown origin) at 1 uM by mobility shift microfluidics platform based assay relative to control
[33] = tested on: Leucine-rich repeat serine/threonine-protein kinase 2 (Homo sapiens), Q5S007 [G2019S]; assay: Inhibition of LRRK2 G2019S mutant (unknown origin) at 1 uM by mobility shift microfluidics platform based assay relative to control
[34] = biological target: Ephrin type-B receptor 2 (Homo sapiens) (UniProt P29323); assay: Inhibition of EPH-B2 (unknown origin) at 1 uM by mobility shift microfluidics platform based assay relative to control

Sequence of Cytoplasmic tyrosine-protein kinase BMX (Homo sapiens) (P51813 whole entry): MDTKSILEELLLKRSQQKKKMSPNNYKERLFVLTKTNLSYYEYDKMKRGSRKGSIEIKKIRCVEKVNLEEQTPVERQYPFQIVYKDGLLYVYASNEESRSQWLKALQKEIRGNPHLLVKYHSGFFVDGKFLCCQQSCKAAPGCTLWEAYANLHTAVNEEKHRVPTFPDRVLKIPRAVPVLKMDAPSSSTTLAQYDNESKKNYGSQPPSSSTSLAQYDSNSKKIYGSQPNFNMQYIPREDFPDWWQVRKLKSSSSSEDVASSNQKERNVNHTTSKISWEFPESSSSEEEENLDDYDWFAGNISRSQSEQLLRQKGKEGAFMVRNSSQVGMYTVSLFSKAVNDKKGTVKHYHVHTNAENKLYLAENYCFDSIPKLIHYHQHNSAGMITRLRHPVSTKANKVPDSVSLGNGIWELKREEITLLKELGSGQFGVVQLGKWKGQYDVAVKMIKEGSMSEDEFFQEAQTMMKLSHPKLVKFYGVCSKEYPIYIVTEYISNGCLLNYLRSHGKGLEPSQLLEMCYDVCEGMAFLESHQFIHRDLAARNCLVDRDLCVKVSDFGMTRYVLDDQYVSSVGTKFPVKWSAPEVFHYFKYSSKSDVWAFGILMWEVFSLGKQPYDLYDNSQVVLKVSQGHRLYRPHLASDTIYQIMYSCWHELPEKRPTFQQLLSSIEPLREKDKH
Sequence of Tyrosine-protein kinase ZAP-70 (Homo sapiens) (P43403 whole entry): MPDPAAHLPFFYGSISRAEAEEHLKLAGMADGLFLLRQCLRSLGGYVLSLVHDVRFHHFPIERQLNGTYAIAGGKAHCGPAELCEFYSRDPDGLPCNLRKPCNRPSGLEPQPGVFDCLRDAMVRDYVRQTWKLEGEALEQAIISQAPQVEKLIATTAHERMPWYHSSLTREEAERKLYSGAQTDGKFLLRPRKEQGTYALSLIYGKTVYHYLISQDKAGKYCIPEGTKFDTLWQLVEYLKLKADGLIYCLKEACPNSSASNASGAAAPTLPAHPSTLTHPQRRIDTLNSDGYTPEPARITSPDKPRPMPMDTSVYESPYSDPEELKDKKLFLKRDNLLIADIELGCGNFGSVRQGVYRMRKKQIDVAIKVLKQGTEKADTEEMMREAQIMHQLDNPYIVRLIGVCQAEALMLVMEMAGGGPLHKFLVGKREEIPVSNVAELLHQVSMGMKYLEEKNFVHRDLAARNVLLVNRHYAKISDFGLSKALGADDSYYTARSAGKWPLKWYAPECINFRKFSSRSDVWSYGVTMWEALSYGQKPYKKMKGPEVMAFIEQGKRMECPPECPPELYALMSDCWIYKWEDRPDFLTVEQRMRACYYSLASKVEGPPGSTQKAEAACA
Sequence of Calcium/calmodulin-dependent protein kinase type II subunit delta (Homo sapiens) (Q13557 whole entry): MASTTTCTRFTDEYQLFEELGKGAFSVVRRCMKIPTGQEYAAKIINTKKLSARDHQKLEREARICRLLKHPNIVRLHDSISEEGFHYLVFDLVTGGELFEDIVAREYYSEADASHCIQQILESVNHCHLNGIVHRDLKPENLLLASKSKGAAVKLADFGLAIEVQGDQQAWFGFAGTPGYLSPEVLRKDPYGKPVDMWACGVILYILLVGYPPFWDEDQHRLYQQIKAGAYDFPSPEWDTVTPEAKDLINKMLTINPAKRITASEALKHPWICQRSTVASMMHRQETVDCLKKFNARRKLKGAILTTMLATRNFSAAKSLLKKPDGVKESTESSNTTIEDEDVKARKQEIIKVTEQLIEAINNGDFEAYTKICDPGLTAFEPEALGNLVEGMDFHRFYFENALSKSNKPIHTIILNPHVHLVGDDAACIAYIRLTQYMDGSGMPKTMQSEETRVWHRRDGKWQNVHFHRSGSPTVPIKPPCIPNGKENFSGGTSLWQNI
Sequence of Serine/threonine-protein kinase 38-like (Homo sapiens) (Q9Y2H1 2-464 limits assumed): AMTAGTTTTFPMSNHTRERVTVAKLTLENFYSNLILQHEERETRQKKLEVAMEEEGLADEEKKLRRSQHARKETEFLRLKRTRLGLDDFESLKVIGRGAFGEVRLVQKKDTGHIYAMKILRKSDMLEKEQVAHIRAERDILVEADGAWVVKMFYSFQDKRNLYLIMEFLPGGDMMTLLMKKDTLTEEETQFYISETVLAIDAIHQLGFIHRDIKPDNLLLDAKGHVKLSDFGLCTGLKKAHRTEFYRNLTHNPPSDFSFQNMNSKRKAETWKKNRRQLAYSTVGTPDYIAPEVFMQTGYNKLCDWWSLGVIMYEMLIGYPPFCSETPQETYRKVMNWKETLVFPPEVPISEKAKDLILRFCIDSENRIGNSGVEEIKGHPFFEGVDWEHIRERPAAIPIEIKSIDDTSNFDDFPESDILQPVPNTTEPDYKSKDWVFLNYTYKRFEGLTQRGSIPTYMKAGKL
Sequence of Dual specificity protein kinase CLK3 (Homo sapiens) (P49761 whole entry, looked up): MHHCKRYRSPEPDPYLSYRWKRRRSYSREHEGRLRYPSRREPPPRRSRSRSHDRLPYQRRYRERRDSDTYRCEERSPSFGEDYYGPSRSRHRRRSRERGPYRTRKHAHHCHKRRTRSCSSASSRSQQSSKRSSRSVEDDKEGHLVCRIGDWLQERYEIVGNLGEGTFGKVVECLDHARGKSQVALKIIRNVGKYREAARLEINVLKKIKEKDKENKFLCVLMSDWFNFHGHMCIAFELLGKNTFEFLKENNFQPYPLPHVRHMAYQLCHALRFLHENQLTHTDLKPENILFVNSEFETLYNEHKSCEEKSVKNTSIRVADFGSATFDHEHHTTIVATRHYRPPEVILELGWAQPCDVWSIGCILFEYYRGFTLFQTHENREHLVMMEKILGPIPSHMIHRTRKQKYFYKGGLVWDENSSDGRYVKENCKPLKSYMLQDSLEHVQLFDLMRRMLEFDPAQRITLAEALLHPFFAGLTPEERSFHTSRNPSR
Sequence of Calcium/calmodulin-dependent protein kinase type 1D (Homo sapiens) (Q8IU85 whole entry, looked up): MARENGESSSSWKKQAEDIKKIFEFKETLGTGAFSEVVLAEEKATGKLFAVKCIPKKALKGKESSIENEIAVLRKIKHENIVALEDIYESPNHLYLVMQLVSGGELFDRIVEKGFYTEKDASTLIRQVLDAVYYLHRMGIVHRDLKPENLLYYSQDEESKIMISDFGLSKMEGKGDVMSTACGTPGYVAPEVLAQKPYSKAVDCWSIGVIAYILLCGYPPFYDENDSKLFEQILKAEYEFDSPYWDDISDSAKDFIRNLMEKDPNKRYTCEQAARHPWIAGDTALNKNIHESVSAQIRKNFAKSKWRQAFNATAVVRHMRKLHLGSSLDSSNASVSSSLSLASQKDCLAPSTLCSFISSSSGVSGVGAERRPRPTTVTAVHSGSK
Sequence of Protein kinase C eta type (Homo sapiens) (P24723 whole entry): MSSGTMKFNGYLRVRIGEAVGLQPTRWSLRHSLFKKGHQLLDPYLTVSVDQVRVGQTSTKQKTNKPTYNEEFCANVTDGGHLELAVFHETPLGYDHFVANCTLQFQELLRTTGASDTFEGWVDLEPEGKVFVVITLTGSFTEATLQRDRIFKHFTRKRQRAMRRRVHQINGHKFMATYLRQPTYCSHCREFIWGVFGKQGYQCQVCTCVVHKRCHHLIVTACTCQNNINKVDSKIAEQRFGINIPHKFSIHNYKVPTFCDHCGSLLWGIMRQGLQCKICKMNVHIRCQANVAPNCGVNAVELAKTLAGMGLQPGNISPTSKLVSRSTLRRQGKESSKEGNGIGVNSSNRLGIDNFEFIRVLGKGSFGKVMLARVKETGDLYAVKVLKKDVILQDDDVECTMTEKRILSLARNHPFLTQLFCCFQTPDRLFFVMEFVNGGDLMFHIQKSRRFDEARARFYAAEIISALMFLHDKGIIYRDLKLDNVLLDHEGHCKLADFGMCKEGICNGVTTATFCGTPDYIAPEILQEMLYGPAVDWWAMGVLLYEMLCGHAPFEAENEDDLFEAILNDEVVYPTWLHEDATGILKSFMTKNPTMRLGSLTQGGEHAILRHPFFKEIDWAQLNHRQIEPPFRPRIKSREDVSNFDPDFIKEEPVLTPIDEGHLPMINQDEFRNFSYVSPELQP
Sequence of BDNF/NT-3 growth factors receptor (Homo sapiens) (Q16620 32-822 limits assumed): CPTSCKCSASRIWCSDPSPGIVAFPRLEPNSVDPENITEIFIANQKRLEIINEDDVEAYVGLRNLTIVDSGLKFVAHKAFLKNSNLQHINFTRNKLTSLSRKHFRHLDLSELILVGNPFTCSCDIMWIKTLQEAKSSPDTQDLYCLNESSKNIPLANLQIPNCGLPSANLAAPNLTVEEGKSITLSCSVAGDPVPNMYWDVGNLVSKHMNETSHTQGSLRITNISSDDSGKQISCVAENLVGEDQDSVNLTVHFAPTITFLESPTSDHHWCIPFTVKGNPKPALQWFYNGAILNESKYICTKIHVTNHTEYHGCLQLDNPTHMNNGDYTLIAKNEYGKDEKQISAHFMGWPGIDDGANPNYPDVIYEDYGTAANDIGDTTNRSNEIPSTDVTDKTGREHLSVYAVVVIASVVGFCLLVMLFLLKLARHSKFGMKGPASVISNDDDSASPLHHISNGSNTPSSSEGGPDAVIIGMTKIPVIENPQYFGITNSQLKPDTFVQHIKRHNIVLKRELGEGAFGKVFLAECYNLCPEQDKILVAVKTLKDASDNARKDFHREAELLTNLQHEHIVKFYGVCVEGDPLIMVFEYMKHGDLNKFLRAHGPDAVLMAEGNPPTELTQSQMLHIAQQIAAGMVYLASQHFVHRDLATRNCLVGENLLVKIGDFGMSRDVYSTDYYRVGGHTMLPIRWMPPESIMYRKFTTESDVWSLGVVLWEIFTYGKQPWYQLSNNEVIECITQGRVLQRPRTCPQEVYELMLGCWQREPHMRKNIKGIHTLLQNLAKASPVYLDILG
Sequence of Casein kinase I isoform epsilon (Homo sapiens) (P49674 whole entry, looked up, canonical isoform): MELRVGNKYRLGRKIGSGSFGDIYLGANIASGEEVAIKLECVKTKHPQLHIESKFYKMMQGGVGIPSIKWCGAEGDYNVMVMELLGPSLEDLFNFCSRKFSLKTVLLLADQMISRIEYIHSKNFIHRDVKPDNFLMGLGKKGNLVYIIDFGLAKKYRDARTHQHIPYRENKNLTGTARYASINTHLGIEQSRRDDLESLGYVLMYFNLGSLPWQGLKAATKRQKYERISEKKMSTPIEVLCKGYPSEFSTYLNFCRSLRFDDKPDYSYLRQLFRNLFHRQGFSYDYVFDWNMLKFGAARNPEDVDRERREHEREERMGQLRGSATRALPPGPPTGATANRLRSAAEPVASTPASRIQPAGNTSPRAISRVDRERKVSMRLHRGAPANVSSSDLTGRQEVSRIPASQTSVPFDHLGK

Row | inhibition [1] [%] | inhibition [2] [%] | inhibition [3] [%] | solubility at 24 h [4] [µM] | inhibition [5] [%] | inhibition [6] [%] | inhibition [7] [%] | inhibition [8] [%] | inhibition [9] [%] | inhibition [10] [%] | inhibition [11] [%] | inhibition [12] [%] | inhibition [13] [%] | inhibition [14] [%] | inhibition [15] [%] | inhibition [16] [%] | inhibition [17] [%] | inhibition [18] [%] | inhibition [19] [%] | inhibition [20] [%] | Compound | also measured
1 | 4 | 1 | 1 | 60 (≈ 28.3 µg/mL) | 1 | 3 | 2 | 97 | 1 | -1 | 8 | 1 | 0 | 0 | 1 | 84 | 10 | 2 | 90 | 3 | CC(C)n1nc(C#Cc2cccc3cc(-c4cccc(C(F)(F)F)c4)ncc23)c2c(N)ncnc21 | inhibition [21]: 0%; inhibition [22]: 36%; inhibition [23]: 10%; inhibition [24]: -1%; inhibition [25]: 2%; inhibition [26]: -1%; inhibition [27]: 2%; inhibition [28]: 3%; inhibition [29]: 10%; inhibition [30]: 13%; inhibition [31]: 6%; inhibition [32]: 1%; inhibition [33]: 3%; inhibition [34]: 97%
2 | 3 | 1 | 0 | 161 (≈ 74.8 µg/mL) | 1 | 69 | -5 | 98 | 6 | 9 | 27 | 1 | 2 | 1 | -1 | 97 | 30 | 10 | 100 | 13 | CC(C)n1nc(C#Cc2cccc(NC(=O)c3cccc(C(F)(F)F)c3)c2)c2c(N)ncnc21 | inhibition [21]: -1%; inhibition [22]: 98%; inhibition [23]: 23%; inhibition [24]: 1%; inhibition [25]: 8%; inhibition [26]: 0%; inhibition [27]: -3%; inhibition [28]: 55%; inhibition [29]: 7%; inhibition [30]: 43%; inhibition [31]: -1%; inhibition [32]: 2%; inhibition [33]: 36%; inhibition [34]: 99%
